Columns and labels:
claudin5 = assay: Claudin5 protein expression in BVECs of cerebral cortex (IHC, MATLAB), DMHC pigs; assay type: in vivo, pig; conditions: Darapladib 10 mg/kg/d orally, 24 weeks
Experimental: Briefly, after induction of diabetes by a single injection of Streptozotocin, animals were fed a high cholesterol diet. After a month of DMHC induction and acclimation, animals were randomly segregated to untreated DMHC and Darapladib-treated DMHC groups. Darapladib-treated pigs received 10 mg/kg/d of Darapladib orally. Three of the pigs were spared from DMHC induction and served as age-matched, non-DMHC normal controls. Twenty four weeks after acclimation, animals were euthanized and their brains and eyes were immediately removed. Brains were divided anteroposteriorly into anterior, middle and posterior regions. For each of these brain regions, 2-3 tissue blocks were generated for routine tissue fixation (10% formalin) or freezing and histological processing. The anterior cortical region comprised of anterior 2⁄3 of frontal lobe and anterior 1⁄3 of temporal lobe. The middle cortical region contained mid 1⁄3 of temporal lobe and anterior 1⁄2 of the parietal lobe. The posterior cortex included the posterior 1⁄2 of the parietal lobe, posterior 1⁄3 of the temporal lobe and the occipital lobe. Eyes were dissected longitudinally to sever the retina at the optic nerve. The sections were fixed in 10% formalin and embedded as flattened disc in paraffin. The tissue samples were processed using routine histology techniques. Standard Hematoxylin & Eosin (H&E) staining (FIG. 1) was carried out in retinal sections. Localization of claudin5, occludin and IgG in the cerebral cortex and retina was carried out using immunohistochemistry (IHC) as described previously. Briefly, tissue sections were deparaffinized in xylene and rehydrated in decreasing concentrations of ethanol. The antigenicity of these tissues was enhanced by microwaving in citrate buffer. Sections were treated with 3% H2O2 for 10 minutes to quench endogenous peroxidase activity. Tissues were subsequently treated with their appropriate blocking serum for 30 minutes at room temperature and then probed with anti-claudin5 (Invitrogen, Cat #35-2500, dilution 1:150) or anti-occludin (Invitrogen, Cat #71-1500, dilution 1:800) antibodies for 1 hour at room temperature. Extravasated IgG was detected using biotinylated anti-swine IgG antibody (Vector laboratories, Inc., Catalogue # BA-9020; dilution 1:100). The use of occludin antibody required pre-treatment with a protease (Sigma, Catalogue P-5147; 1.5 mg/ml) for 10 minutes at 37° C. At the end of primary antibody step, all tissue sections were thoroughly rinsed in PBS and then probed with biotin-labeled secondary antibodies [anti-mouse IgG (Vector laboratories, Catalogue # PK-6102; Dilution 1:100) for claudin5 and anti-rabbit IgG (Vector laboratories, Inc., Catalogue # PK-6101; Dilution 1:100) for occludin] for 30 minutes at room temperature. Sections were then rinsed in PBS, treated with avidin-peroxidase complex (Vectastain ABC Elite kit, Vector Laboratories, Inc., Catalogue PK-6100), washed with PBS and visualized with 3-3-diaminobenzidine-4-HCL (DAB)/H2O2 (Imm-PACT-DAB) (Dako, Code K3468). […] Slides were examined and photographed with a Nikon FXA microscope, and digital images were recorded using a Nikon DXM1200F digital camera and analyzed using MATLAB (MathWorks, Mass., USA) and NIS-elements software (Nikon, Melville, N.Y.). […] Claudin5 and occludin protein expression in pig cerebral cortex was evaluated semi-quantitatively using IHC by taking images at five random locations as described previously. Images were analyzed using MATLAB (MathWorks, Mass., USA). […]

GFAP = GFAP expression in retina (immunofluorescence), DMHC pigs; assay type: in vivo, pig; conditions: Darapladib 10 mg/kg/d orally, 24 weeks
Experimental: Briefly, after induction of diabetes by a single injection of Streptozotocin, animals were fed a high cholesterol diet. After a month of DMHC induction and acclimation, animals were randomly segregated to untreated DMHC and Darapladib-treated DMHC groups. Darapladib-treated pigs received 10 mg/kg/d of Darapladib orally. Three of the pigs were spared from DMHC induction and served as age-matched, non-DMHC normal controls. Twenty four weeks after acclimation, animals were euthanized and their brains and eyes were immediately removed. Brains were divided anteroposteriorly into anterior, middle and posterior regions. For each of these brain regions, 2-3 tissue blocks were generated for routine tissue fixation (10% formalin) or freezing and histological processing. […] Cells positive for GFAP were counted throughout the whole thickness of the retina, and then quantified using ImagePro7.0 (Media Cybernetics, Silver Spring, Md.). Briefly, a 300×300 pixel square area was randomly made in each retinal section in three contiguous locations across the retina and the positive GFAP area was determined per total area using a fixed threshold. […] Cell number was determined by counting the DAPI-positive nuclei in a fixed area. […] GFAP-positive fluorescence extended from inner to outer limiting membranes in the DMHC group, confirming that GFAP was predominantly being expressed by Müller cells (FIGS. 5A-E). […]

## CCN(CC)CCN(Cc1ccc(-c2ccc(C(F)(F)F)cc2)cc1)C(=O)Cn1c(SCc2ccc(F)cc2)nc(=O)c2c1CCC2 [Darapladib]
claudin5; FIG. 7A
  claudin5 protein expression, anterior cortex, versus DMHC group: reduction in claudin5 expression compared to the DMHC group, but this difference did not reach statistical significance
  claudin5 protein expression, anterior cortex, versus controls: significantly higher than in controls
claudin5; FIG. 7B
  claudin5 protein expression, middle cortex, versus DMHC only: approached statistical significance
  claudin5 protein expression, middle cortex, versus controls: reduced expression of claudin5 to levels not significantly different from controls
claudin5; rank among treatment groups, FIG. 7C
  claudin5 protein expression, posterior cortex: highest expression of claudin5
GFAP; FIG. 5D
  intensity of GFAP immunostaining (GFAP expression) in retina: dramatically lower GFAP expression in the retinas of DMHC pigs, it was still significantly higher than in controls
GFAP; compared to DMHC only, FIGS. 5A-C
  GFAP immunoreactivity, distribution in retina: reduced and confined to the GCL
